Measurements taken from PubChem BioAssay AID2060500 (Molecular Pharmacology Branch, DTP, NCI, 2025).

Tested on: 596521-263-R-J1-PDC complex spheroids, viability % of control
Assay: Anticancer human tumor 596521-263-R-J1-PDC patient-derived soft tissue sarcoma cell line growth inhibition [GQUAD]
Settings: for IC50: curve of first compound; for viability, T/C: stronger effect = lower value; active = viability on the fitted dose curve at most 10% of control; inactive = the rest
How it was run: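 Tumor cells were grown as complex spheroids with HUVEC endothelial cells and mesenchymal stem cells as stroma. G-quadruplex stabilizers were combined with targeted agents over half-log dilutions from near the clinical Cmax, or from 10 microM.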

[1] = second compound 0.0316 µM, first compound 0.0316 µM
[2] = second compound 0.0316 µM, first compound 0.1 µM
[3] = second compound 0.0316 µM, first compound 0.316 µM
[4] = second compound 0.0316 µM, first compound 1 µM
[5] = second compound 0.0316 µM, first compound 3.16 µM
[6] = second compound 0.0316 µM, first compound 10 µM
[7] = second compound 0.1 µM, first compound 0.0316 µM
[8] = second compound 0.1 µM, first compound 0.1 µM
[9] = second compound 0.1 µM, first compound 0.316 µM
[10] = second compound 0.1 µM, first compound 1 µM
[11] = second compound 0.1 µM, first compound 3.16 µM
[12] = second compound 0.1 µM, first compound 10 µM
[13] = second compound 0.316 µM, first compound 0.0316 µM
[14] = second compound 0.316 µM, first compound 0.1 µM
[15] = second compound 0.316 µM, first compound 0.316 µM
[16] = second compound 0.316 µM, first compound 1 µM
[17] = second compound 0.316 µM, first compound 3.16 µM
[18] = second compound 0.316 µM, first compound 10 µM
[19] = second compound 1 µM, first compound 0.0316 µM
[20] = second compound 1 µM, first compound 0.1 µM
[21] = second compound 1 µM, first compound 0.316 µM
[22] = second compound 1 µM, first compound 1 µM
[23] = second compound 1 µM, first compound 3.16 µM
[24] = second compound 1 µM, first compound 10 µM
[25] = second compound 3.16 µM, first compound 0.0316 µM
[26] = second compound 3.16 µM, first compound 0.1 µM
[27] = second compound 3.16 µM, first compound 0.316 µM
[28] = second compound 3.16 µM, first compound 1 µM
[29] = second compound 3.16 µM, first compound 3.16 µM
[30] = second compound 3.16 µM, first compound 10 µM
[31] = second compound 10 µM, first compound 0.0316 µM
[32] = second compound 10 µM, first compound 0.1 µM
[33] = second compound 10 µM, first compound 0.316 µM
[34] = second compound 10 µM, first compound 1 µM
[35] = second compound 10 µM, first compound 3.16 µM
[36] = second compound 10 µM, first compound 10 µM
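Also: spheroids exposed to drugs for 7 days before viability reading.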
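For viability, T/C in this document: 100% = DMSO vehicle control viability.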

C=CCn1c(=O)c2cnc(Nc3ccc(N4CCN(C)CC4)cc3)nc2n1-c1cccc(C(C)(C)O)n1 + Cc1cnc(CNC(=O)c2c(=O)c3ccc(N4CCCN(C)CC4)nc3n3c2sc2ccccc23)cn1
inactive: viability, T/C [1] 88.4% | viability, T/C [2] 79.2% | viability, T/C [3] 61.2% | viability, T/C [4] 48.8% | viability, T/C [5] 32.6% | viability, T/C [6] 31.4% | viability, T/C [7] 78.3% | viability, T/C [8] 72.9% | viability, T/C [9] 55.3% | viability, T/C [10] 40.8% | viability, T/C [11] 38.3% | viability, T/C [12] 40.8% | viability, T/C [13] 84.8% | viability, T/C [14] 62.2% | viability, T/C [15] 50.7% | viability, T/C [16] 40.9% | viability, T/C [17] 38.5% | viability, T/C [18] 26.8% | viability, T/C [19] 62.9% | viability, T/C [20] 60% | viability, T/C [21] 58.4% | viability, T/C [22] 41.9% | viability, T/C [23] 36.5% | viability, T/C [24] 24.3% | viability, T/C [25] 50.6% | viability, T/C [26] 54.3% | viability, T/C [27] 49.1% | viability, T/C [28] 39.1% | viability, T/C [29] 32.7% | viability, T/C [30] 25.6% | viability, T/C [31] 43.4% | viability, T/C [32] 12.9% | viability, T/C [33] 36.4% | viability, T/C [34] 33.8% | viability, T/C [35] 20.8% | viability, T/C [36] 0.23%
0.481 µM: IC50 (second compound 0.1 µM)
0.343 µM: IC50 (second compound 0.316 µM)
0.196 µM: IC50 (second compound 3.16 µM)
0.592 µM: IC50 (second compound 1 µM)
< 0.0316 µM: IC50 (second compound 10 µM)
0.769 µM: IC50 (second compound 0.0316 µM)

COc1ncnc(C2CC2)c1-c1ncc2cnn(Cc3ccc(-c4nc(C(F)(F)F)cn4C(C)C)cc3)c2n1 + Cc1cnc(CNC(=O)c2c(=O)c3ccc(N4CCCN(C)CC4)nc3n3c2sc2ccccc23)cn1
> 10 µM: IC50 (second compound 0.0316 µM) | IC50 (second compound 0.1 µM) | IC50 (second compound 0.316 µM) | IC50 (second compound 1 µM) | IC50 (second compound 3.16 µM)
< 0.0316 µM: IC50 (second compound 10 µM)
inactive: viability, T/C [1] 90.2% | viability, T/C [2] 90.6% | viability, T/C [3] 78% | viability, T/C [4] 90.4% | viability, T/C [5] 86.9% | viability, T/C [6] 79% | viability, T/C [7] 84.4% | viability, T/C [8] 77.2% | viability, T/C [9] 74.7% | viability, T/C [10] 77.1% | viability, T/C [11] 85% | viability, T/C [12] 79.2% | viability, T/C [13] 72% | viability, T/C [14] 74.2% | viability, T/C [15] 67.9% | viability, T/C [16] 79.5% | viability, T/C [17] 70.2% | viability, T/C [18] 65.7% | viability, T/C [19] 62.8% | viability, T/C [20] 65% | viability, T/C [21] 65.1% | viability, T/C [22] 63.1% | viability, T/C [23] 64% | viability, T/C [24] 61.9% | viability, T/C [25] 53.1% | viability, T/C [26] 59.2% | viability, T/C [27] 51.6% | viability, T/C [28] 48.6% | viability, T/C [29] 59.8% | viability, T/C [30] 49.9% | viability, T/C [31] 44.6% | viability, T/C [32] 25.6% | viability, T/C [33] 41.5% | viability, T/C [34] 42.6% | viability, T/C [35] 40.7% | viability, T/C [36] 0.28%
